Experimental data published in patent US8415357B2 (Canbas Co., Ltd., priority 2007, dated 2013).

Tested on: Jurkat cells
Test: Adaptation to G2 cell cycle arrest (G1 increment) in X-ray pre-arrested Jurkat cells, flow cytometry
Format: cell-based, human
Details: Homo sapiens, Jurkat, 24 h, concentration causing half-maximal increase of % cells in G1 phase (G1 increment), Jurkat pre-arrested by 10 Gy X-ray, 24 hours with compound
Protocol: Phenotype-based screening was used to measure the ability of compounds of the invention to cause adaptation to G2 cell cycle arrest in G2-arrested cells. Adaptation to G2 cell cycle arrest and re-entry into the cell cycle can result in death of the previously G2-arrested cell, or suppression (inhibition) of further proliferation of the previously G2-arrested cell. In a non-limiting embodiment, the ability to cause adaptation to G2 cell cycle arrest was measured by contacting cells in which G2 arrest had been induced by irradiation (e.g., gamma (γ) radiation or X-ray radiation), with compounds of the invention at various concentrations and, for each compound at each concentration, determining the percentage of cells that escaped G2 arrest and re-entered the cell cycle, by determining the percentage of cells in G1 phase. The IC50 value for each compound was calculated as the dosage (usually in μM) that caused half-maximal increase of the percentage of cells in G1 phase (the G1 increment) measured for that compound. Certain invention compounds were initially identified by phenotype-based screening of small molecule libraries for activity against G2-arrested cells as described above.
Jurkat cells (a human T cell lymphoma-derived cell line) were arrested at the G2 phase by X-ray irradiation at 10 Gy, and cultured for 24 hours in 10% fetal calf serum (FCS)/RPMI1640 at 37° C. with 5% CO2/air. (FCS was from Equitech-Bio, Kerrville, Tex., and RPMI1640 was from Sigma-Aldrich, St. Louis, Mo.) Test compounds were added to the medium at the indicated doses, and the cells were cultured under the conditions described above, for an additional 24 hours before harvesting.
Harvested cells were stained with Krishan's buffer (0.1% sodium citrate, 50 μg/ml propidium iodide, 20 μg/ml RNase A, 0.5% Nonidet P-40) and analyzed by flow cytometry (BD Biosciences, Franklin Lakes, N.J.) to identify the cell stage of each cell in the sample. Cells in G1 phase were identified by having […] (2N) DNA content.
The IC50 value for each compound was calculated as the dosage showing half maximal activity to induce the increase of the percentage of cells in G1 phase (the G1 increment). IC50 values were used to measure the activity of compounds and to determine structure-activity relationships.
Pre-arrested Jurkat cells were prepared as described in Example 1. Briefly, Jurkat cells were subjected to X-ray irradiation at a dose of 10 Gy, and cultured for 24 hours in 10% fetal calf serum (FCS)/RPMI1640 at 37° C. with 5% CO2/air, after which time cells were exposed to various concentrations of test compounds, and cultured under the conditions described above for an additional 24 hours before harvesting. Harvested cells were stained with Krishan's buffer (0.1% sodium citrate, 50 μg/ml propidium iodide, 20 μg/ml RNase A, 0.5% Nonidet P-40) and analyzed by flow cytometry (BD Biosciences, Franklin Lakes, N.J.) to identify the cell stage of each cell in the sample. Cells in G1 phase were identified by having […] (2N) DNA content.
The IC50 value for each compound was calculated as the dosage (concentration in μM) that caused half-maximal increase of the percentage of cells in G1 phase (the G1 increment) measured for that test compound. Table 1 below presents the structure, mass, 1H NMR values, and […] values for representative compounds.
The IC50 value for each compound was calculated as the dosage (concentration in μM) that caused half-maximal increase of the percentage of cells in G1 phase (the G1 increment) measured for that test compound. Table 2 below presents structures, IUPAC name, molecular formula, ID number (“SCID”), mass, 1H NMR values, and IC50 values for representative compounds. Table 3 presents structures, IUPAC name, molecular formula, ID number (“SCID”), mass, 1H NMR values, and IC50 values for further representative compounds.

CC1=C(C)C(=O)N(Nc2cc(C(F)(F)F)cc(C)n2)C1=O [Compound S00069] showed an IC50 (Table 1) of 5 µM.
Compound CC1=C(C)C(=O)N(Nc2ccc(C(F)(F)F)cn2)C1=O [Compound S00073] has an IC50 (Table 1) of 2.5 µM.
CC1=C(C)C(=O)N(N(C)c2cc(C(F)(F)F)cc(C)n2)C1=O [Compound S00084] showed an IC50 (Table 1) of 5 µM.
CC1=C(C)C(=O)N(Cc2ccc(C(F)(F)F)cc2)C1=O [Compound S00088] gave an IC50 (Table 1) of 10 µM.
CC1=C(C)C(=O)N(Nc2nc(Cl)ccc2C(F)(F)F)C1=O [Compound S00108] showed an IC50 (Table 1) of 20 µM.
Work on CC1=C(C)C(=O)N(Cc2ccc(C(F)(F)F)cn2)C1=O [Compound S00110] yielded an IC50 (Table 1) of 60 µM.
CC1C(=O)N(Nc2ccc(C(F)(F)F)cn2)C(=O)C1Sc1ccccc1 (stereo not shown) [Compound S00145] showed an IC50 (Table 1) of 30 µM.
Compound CC1=C(C)C(=O)N(N(C)c2ccc(C(F)(F)F)c(Cl)n2)C1=O [Compound S00170] has an IC50 (Table 1) of 0.12 µM and an IC50 (Table 2) of 0.12 µM.
With O=C1C2=C(CCCC2)C(=O)N1Nc1ccc(C(F)(F)F)c(Cl)n1 [Compound S00186, 2-{[6-chloro-5-(trifluoromethyl)-2-pyridyl]amino}-4,5,6,7-tetrahydroisoindole-1,3-dione] the IC50 (Table 1) was 0.63 µM and the IC50 (Table 2) was 0.625 µM.
Work on O=C1C2=C(CCCC2)C(=O)N1Nc1ccc(C(F)(F)F)cn1 [Compound S00200] yielded an IC50 (Table 1) of 5 µM.
For CC1=C(C)C(=O)N(Cc2ccc(Cl)c(C(F)(F)F)c2)C1=O [Compound S00201], the IC50 (Table 1) was 10 µM.
In the case of CC1=C(c2ccccc2)C(=O)N(Nc2ccc(C(F)(F)F)c(Cl)n2)C1=O [Compound S00257], the IC50 (Table 1) is reported as 10 µM.
Work on CC1=C(C)C(=O)N(Nc2ccc(C)cc2C)C1=O [Compound S00294] yielded an IC50 (Table 1) of 5 µM.
CC1=C(C)C(=O)N(Nc2nc3ccccc3s2)C1=O [Compound S00295] was tested, and the IC50 (Table 1) was 5 µM.
Compound CC1=C(C)C(=O)N(Nc2cccc(C(F)(F)F)c2)C1=O [Compound S00305] has an IC50 (Table 1) of 5 µM.
In the case of CC1=C(C)C(=O)N(Nc2cc(Cl)ccc2C)C1=O [Compound S00319], the IC50 (Table 1) is reported as 10 µM.
For CC1=CC(=O)N(Nc2ccc(C(F)(F)F)c(Cl)n2)C1=O [Compound S00333], the IC50 (Table 1) was 15 µM.
In the case of CC1=C(C)C(=O)N(Nc2ccc3ccccc3n2)C1=O [Compound S00362], the IC50 (Table 1) is reported as 5 µM.
Work on CC1=C(C)C(=O)N(Nc2ccc(Cl)c(C(F)(F)F)c2)C1=O [Compound S00405] yielded an IC50 (Table 1) of 2.5 µM.
With O=C1C(Cl)=C(Cl)C(=O)N1Nc1cccc(C(F)(F)F)c1 [Compound S00406] the IC50 (Table 1) was 80 µM.
In the case of CC1=C(C)C(=O)N(Cc2ccc(C(F)(F)F)cc2Cl)C1=O [Compound S00408], the IC50 (Table 1) is reported as 10 µM.
O=C1C(Cl)=C(Cl)C(=O)N1Cc1ccc(C(F)(F)F)cc1 [Compound S00409] was tested, and the IC50 (Table 1) was 20 µM.
COC1=C(C)C(=O)N(Cc2ccc(C(F)(F)F)cc2)C1=O [Compound S00410] showed an IC50 (Table 1) of 10 µM.
CC1=C(C)C(=O)N(Cc2ccc(C(F)(F)F)c(F)c2)C1=O [Compound S00412] showed an IC50 (Table 1) of 10 µM.
Compound COc1nc(NN2C(=O)C(C)=C(C)C2=O)ccc1C(F)(F)F [Compound S00451] has an IC50 (Table 1) of 60 µM.
CC1=C(C)C(=O)N(Nc2ccc(C)c(C)c2)C1=O [Compound S00452] showed an IC50 (Table 1) of 10 µM.
Work on CC1=C(C)C(=O)N(Nc2nc3ccc(F)cc3s2)C1=O [Compound S00454] yielded an IC50 (Table 1) of 4 µM.
CC1=C(C)C(=O)N(Nc2cc(Cl)cc(Cl)c2)C1=O [Compound S00456] showed an IC50 (Table 1) of 2.5 µM.
Compound CC1=C(C)C(=O)N(Nc2cc(C(F)(F)F)cc(C(F)(F)F)c2)C1=O [Compound S00474] has an IC50 (Table 1) of 2.5 µM.
In the case of CC1=C(C)C(=O)N(Nc2cccc3ccccc23)C1=O [Compound S00475], the IC50 (Table 1) is reported as 3.75 µM.
For CC1=C(C)C(=O)N(Nc2ccc(C(C)(C)C)cc2)C1=O [Compound S00479], the IC50 (Table 1) was 2.5 µM.
CSCc1cc(C(F)(F)F)ccc1NN1C(=O)C(C)=C(C)C1=O [Compound S00499] gave an IC50 (Table 1) of 5 µM.
In the case of CC1=C(C)C(=O)N(Nc2cc(C(F)(F)F)ccc2C)C1=O [Compound S00512], the IC50 (Table 1) is reported as 5 µM.
For CC1=C(C)C(=O)N(Cc2ccc(C(F)(F)F)c(Cl)c2)C1=O [Compound S00513], the IC50 (Table 1) was 5 µM.
CC1=C(C)C(=O)N(Nc2ccc(-c3ccccc3)cc2)C1=O [Compound S00515] showed an IC50 (Table 1) of 20 µM.
In the case of CC1=C(C)C(=O)N(Nc2ccc(Br)c(C(F)(F)F)c2)C1=O [Compound S00516, 1-{[4-bromo-3-(trifluoromethyl)phenyl]amino}-3,4-dimethylazoline-2,5-dione], the IC50 (Table 1) is reported as 1.25 µM and the IC50 (Table 2) is reported as 0.625 µM.
CC1=C(C)C(=O)N(C(C)c2ccc(Br)cc2)C1=O (stereo not shown) [Compound S00543] showed an IC50 (Table 1) of 60 µM.
With CC1=C(C)C(=O)N(Nc2ccc3cccc(Cl)c3n2)C1=O [Compound S00585, 1-[(8-chloro(2-quinolyl))amino]-3,4-dimethylazoline-2,5-dione] the IC50 (Table 1) was 0.45 µM and the IC50 (Table 2) was 0.3 µM.
CC1=C(C)C(=O)N(N(C)c2cc(Cl)cc(Cl)c2)C1=O [Compound S00587] gave an IC50 (Table 1) of 2.5 µM.
For CC1=C(C)C(=O)N(Nc2nc3ccc(Cl)cc3s2)C1=O [Compound S00590], the IC50 (Table 1) was 5 µM.
In the case of CC1=C(C)C(=O)N(Nc2ccc3cc(Cl)ccc3n2)C1=O [Compound S00622], the IC50 (Table 1) is reported as 5 µM.
Compound CC1=C(C)C(=O)N(Nc2cc(C(F)(F)F)ccc2Br)C1=O [Compound S00623] has an IC50 (Table 1) of 10 µM.
In the case of CC1=C(C)C(=O)N(Nc2ccc(C(F)(F)F)cc2Br)C1=O [Compound S00624], the IC50 (Table 1) is reported as 10 µM.
Compound CC1=C(C)C(=O)N(Nc2cccc(C(C)(C)C)c2)C1=O [Compound S00627] has an IC50 (Table 1) of 2 µM.
In the case of CC1=C(C)C(=O)N(Oc2ccc(C)cc2)C1=O [Compound S00628], the IC50 (Table 1) is reported as 60 µM.
With CC1=C(C)C(=O)N(Nc2cc(C(C)(C)C)ccc2Br)C1=O [Compound S00649] the IC50 (Table 1) was 10 µM.
For CC1=C(C)C(=O)N(Nc2ccc3ccccc3c2)C1=O [Compound S00651], the IC50 (Table 1) was 10 µM.
Work on CC1=C(C)C(=O)N(N2CCc3cc(C)ccc32)C1=O [Compound S00662] yielded an IC50 (Table 1) of 60 µM.
For CC1=C(C)C(=O)N(n2ccc3cc(C)ccc32)C1=O [Compound S00663], the IC50 (Table 1) was 40 µM.
Work on CC1=C(C)C(=O)N(Nc2ccc(C)c(C(F)(F)F)c2)C1=O [Compound S00697] yielded an IC50 (Table 1) of 2.5 µM.
In the case of CC1=C(C)C(=O)N(Nc2ccc3c(c2)C(C)(C)CCC3(C)C)C1=O [Compound S00698], the IC50 (Table 1) is reported as 5 µM.
With CC1=C(C)C(=O)N(Nc2ccc(C(F)(F)F)cc2Cl)C1=O [Compound S00699] the IC50 (Table 1) was 10 µM.
For CC1=C(C)C(=O)N(Nc2ccc(Cl)c3ccccc23)C1=O [Compound S00738, 1-[(4-chloronaphthyl)amino]-3,4-dimethylazoline-2,5-dione], the IC50 (Table 1) was 0.63 µM and the IC50 (Table 2) was 0.625 µM.
CC1=C(C)C(=O)N(Nc2nc3c(Cl)cccc3s2)C1=O [Compound S00756] showed an IC50 (Table 1) of 1.25 µM.
For CC1=C(C)C(=O)N(Nc2cc(Cl)c(Cl)c(Cl)c2)C1=O [Compound S00832, 3,4-dimethyl-1-[(3,4,5-trichlorophenyl)amino]azoline-2,5-dione], the IC50 (Table 2) was 0.3 µM.
Work on CC1=C(C)C(=O)N(Nc2cc(Cl)c3cccc(C)c3n2)C1=O [Compound S00871, 1-[(4-chloro-8-methyl(2-quinolyl))amino]-3,4-dimethylazoline-2,5-dione] yielded an IC50 (Table 2) of 0.625 µM.
CC1=C(C)C(=O)N(Nc2cc(C(F)(F)F)c3ccccc3n2)C1=O [Compound S00873, 3,4-dimethyl-1-{[4-(trifluoromethyl)(2-quinolyl)]amino}azoline-2,5-dione] gave an IC50 (Table 2) of 0.3 µM.
Compound CC1=C(C)C(=O)N(Nc2cc(Cl)c3cc(C)ccc3n2)C1=O [Compound S00935, 1-[(4-chloro-6-methyl(2-quinolyl))amino]-3,4-dimethylazoline-2,5-dione] has an IC50 (Table 2) of 0.625 µM.
CC1=C(C)C(=O)N(Nc2ccc(Br)c3ccccc23)C1=O [Compound S00942, 1-[(4-bromonaphthyl)amino]-3,4-dimethylazoline-2,5-dione] showed an IC50 (Table 2) of 0.625 µM.
